System: CII induced rheumatoid arthritis in DBA mice
Experiment: Collagen type II induced model of rheumatoid arthritis
Details: mice in vivo; example 17 up to 40 mg/kg/day; methotrexate 10 mg/kg/day, 3 times a week
Excerpt: Collagen type II (hereinafter referred as CII) induced experimental model of rheumatoid arthritis (hereinafter referred as RA) in DBA mice is widely accepted as the most relevant and predictive preclinical model for RA. In this model, DBA mice are immunized with CII, the collagen type mainly present in the joint structures, together with complete Freund Adjuvant in their tail. 2 to 3 weeks later, several of the immunized mice start to develop arthritis in the four footpaths. In order to further worsen the disease, mice are given a second CII boost at three weeks after the first immunisation, this time however in a footpath. Because the immune system is already immunised in these mice, this rapidly provokes a severe swelling of the injected footpath (named Delayed Type Hypersensitivity or DTH) which can be used as a measurement for T-cell activation. Within a few days after the booster, almost all untreated animals start developing symptoms of arthritis. RA development is scored from 0 to 16 (16 being severe clinical arthritis in all four footpaths). At the end of the study (3 weeks after the CII boost) antibody formation was determined against CII and histology performed on the footpaths.
The efficiency of the pteridine derivative of example 17 (administered in an amount of 20 mg/kg/day, started one day before the CII boost) was explored in this CII-model.

Structure (SMILES): CN(Cc1cnc2nc(N)nc(N)c2n1)c1ccc(C(=O)N[C@@H](CCC(=O)O)C(=O)O)cc1 [methotrexate, reference compound]
- mortality or cytotoxic effect on increasing the dose: death of all animals

— patent US20070032477A1, “Pteridine derivatives useful for making pharmaceutical compositions” (priority 2003, published 2007)
